Tests used:
[1] = tested on: fecal bile acid excretion and plasma bile acid concentrations; test: ZDF rat study of 264W94: fecal bile acid excretion and plasma bile acid concentrations; type: in vivo, Male Zucker diabetic fatty rats (ZDF/GmiCrl-fa/fa); settings: 2 weeks
Method: Animal preparation. Male Zucker diabetic fatty rats (ZDF/GmiCrl-fa/fa) were purchased from Charles River (Raleigh, NC) and housed under controlled conditions (12:12 light-dark cycle, 24° C. and 50% relative humidity) with free access to rodent food (Purina 5008, Harlan Teklad, Indianapolis, IN). All rats arrived at seven weeks of age (±3 days). After a one-week acclimation period, rats were anesthetized with isoflurane (Abbott Laboratories, IL) and tail-vein blood samples were collected at 9 am without fasting. Blood glucose levels were measured using a glucometer (Bayer, Leverkusen, Germany). In order to ensure balanced treatment groups, ZDF rats were assigned to six treatment groups based upon baseline glucose: vehicle (0.5% HPMC, 0.1% Tween80) and five doses of 264W94 (0.001, 0.01, 0.1, 1, 10 mg/kg). All treatments were given via oral gavage twice a day and animals were followed for two weeks with blood samples collected from tail vein at the end of each week at 9 am without fasting. Fecal samples were collected for 24 hours during the second week of treatment.
Measurement of clinical chemistry parameters. Non-esterified fatty acids (NEFA), bile acids, and bile acids in fecal extraction were measured using the Olympus AU640 clinical chemistry analyzer (Beckman Coulter, Irving, TX).

[2] = tested on: plasma bile acid levels; test: Plasma bile acid levels of ZDF rats after ascending doses of SC-435 and LUM002; type: in vivo, Male ZDF rats; settings: ZDF rats n=4; oral gavage twice a day for 2 weeks; all doses (SC-435 1, 10 or 30 mg/kg; LUM002 0.3, 1, 3, 10 or 30 mg/kg)
Method: FIG. 2. Plasma bile acid levels of ZDF rats after administration of ascending doses of SC-435 and LUM002. Male ZDF rats (n=4) were administered vehicle, SC-435 (1, 10 or 30 mg/kg) or LUM002 (0.3, 1, 3, 10 or 30 mg/kg) by oral gavage twice a day for 2 weeks. Plasma bile acid levels were determined at the end of the second week. Data are expressed as mean values±SEM.
Plasma bile acid levels of ZDF rats after administration of ascending doses of SC-435 and LUM002. Male ZDF rats (n=4) were administered vehicle, SC-435 (1, 10 or 30 mg/kg) or LUM002 (0.3, 1, 3, 10 or 30 mg/kg) by oral gavage twice a day for 2 weeks. Plasma bile acid levels were determined at the end of the second week. […] Data are expressed as mean values±SEM.

[3] = Pharmacokinetics of LUM001 in pediatric subjects (study NB-00-02-014); type: in vivo; settings: measured on day eight
Method: LUM001 has been administered to forty patients under the age of 18 years old. […] The drug was administered once-a-day (QD) in the morning for fourteen days. […] These doses are similar to those using to treat children with cholestatic diseases.

[4] = tested on: Postprandial Total Serum Bile Acids; settings: dog; previous experiments (2); cited from earlier work
[5] = tested on: Postprandial Total Serum Bile Acids; test: Time to onset of activity of LUM001 on postprandial serum bile acids in dogs; type: in vivo, Beagle dogs; settings: dog; dose increased above ED50 level to 1 mg/kg
Method: Animal Study on the Duration of Action and Time to Onset of ASBTI Activity of a Single Oral Dose of LUM001 on Postprandial Total Serum Bile Acids in Beagle Dogs
Test Compound: LUM001—Form I
(§1) Dosage preparation and administration: LUM001 was dissolved in water at concentrations that required the administration of 0.2 ml/kg of solution. Solutions were placed into gelatin capsules, Torpac Inc., size 13 Batch 594, East Hanover NJ, and administered orally.
(§2) Dogs: Male beagle dogs were obtained from Covance Research Products, Cumberland VA or Marshall Farms USA, Inc., North Rose NY. A total of 20 dogs, 1 to 5 years old, 6.8 to 15.6 kg body weight, were used in these experiments. The dogs were conditioned to a 12 hour light/dark cycle and maintained on a feeding restriction of 1 hour per day access to food (Richman Standard Certified Canine Diet #5007, PMI Nutrition, Inc., St Louis MO) from 7 to 8 AM. They were trained to eat a special meal promptly within 20 minutes when presented (1 can. 397 g, Evanger's 100% Beef for Dogs, Evanger's Dog and Cat Food Co., Inc., Wheeling IL, mixed with 50 g of sharp cheddar cheese).
Serum Total Bile Acid (SBA) Measurement: SBA was measured by an enzymatic assay. SBA values are expressed as μg of total bile acids/ml of serum. […]

[6] = tested on: Postprandial Total Serum Bile Acids; test: Duration of action of LUM001 on dog serum bile acids, Method 2 (dosing before feeding); type: in vivo, Beagle dogs; settings: dogs n=9, 0.05 mg/kg (2nd dose column), dosing time 0 hr, feeding time 2 hr
Method: as §1, §2
Serum Total Bile Acid (SBA) Measurement: SBA was measured by an enzymatic assay. SBA values are expressed as μg of total bile acids/ml of serum.
Experiments to Measure the Duration of Action of LUM001: In dogs a single experimental meal produces a postprandial rise in SBA that is elevated to a peak at 1 hour after feeding and constant for an additional 3 hours. Previous experiments (2) indicate that LUM001 remains active for more than 4.5 hours. […]

[7] = tested on: serum bile acids and fecal bile acids; test: Phase 1 ascending multiple oral doses of LUM001 in healthy subjects: serum and fecal bile acids; type: in vivo; settings: healthy adult subjects; multiple oral doses qAM, 28 days
Method: A Randomized, Double-Blind, Placebo Controlled, Safety, Tolerability, Pharmacokinetic, and Pharmacodynamic Study of Ascending Multiple Oral Doses of LUM001 in Healthy Subjects
This Phase 1 study was a randomized, double-blind, placebo-controlled study of ascending multiple oral doses of LUM001 in healthy, adult subjects. This study was conducted at a single center. There were 13 LUM001 dosing panels: 10, 20, 60, 100, and 20 mg every morning (qAM) (2) (i.e., the regimen was tested a second time in the study), 5 mg every evening (qPM), 0.5, 1, 2.5, 5, 2.5 (2), 5 (2), and 0.5 to 5 mg qAM dose titration. Most of the dosing panels included subjects treated with matching placebo. […]
SBA were analyzed as part of the routine clinical analysis of the serum samples collected at each time point.
Fecal Bile Acid Analysis: Fecal samples were collected for all panels except the dose-titration panel, 2.5 (2) and 5 mg (2), on Days 9 through 14 and 23 through 28 (data shown in FIG. 4). Twenty-four hour FBA excretions were quantified by Pharmacia for Days 9 through 14 and 23 through 28. […] The weight of each 24-hour fecal collection was recorded on the CRFs. […]
An aliquot for each 24-hour fecal sample collected on Days 23 through 28 was combined, homogenized, and analyzed for bile acid species concentrations by ANAPHARM. […]

[8] = ZDF rats, oral gavage twice a day

CCCC[C@]1(CC)CS(=O)(=O)c2cc(OC)c(OC)cc2[C@@H](c2ccccc2)N1 [Compound 264W94]
Fecal bile acid concentrations elevated compared to vehicle treated rats ([1]; 0.001-10 mg/kg oral gavage twice a day, maximum elevation (up to)): up to 6.5 fold | Plasma bile acid concentrations ([1]; ZDF rats, 0.001-10 mg/kg oral gavage twice a day): decreased dose-dependently | ED50 for elevation of fecal bile acid concentrations [1, 8]: 0.17 mg/kg | Fecal NEFA [1, 8]: slightly increased

CCCC[C@]1(CC)CS(=O)(=O)c2ccc(N(C)C)cc2[C@@H](c2cccc(NC(=O)N[C@@H]3O[C@H](COS(=O)(=O)[O-])[C@@H](O)[C@H](OCc4ccccc4)[C@H]3O)c2)[C@H]1O.[K+] [LUM002]
Plasma bile acid levels [2]: decreased

CCCCC1(CCCC)CS(=O)(=O)c2ccc(N(C)C)cc2[C@@H](c2ccc(OCCCC[N+]34CCN(CC3)CC4)cc2)[C@H]1O.CS(=O)(=O)[O-] [SC-435, 1-[4-[4-[(4R,5R)-3,3-dibutyl-7-(dimethylamino)-2,3,4,5-tetrahydro-4-hydroxy-1,1-dioxido-1-benzothiepin-5-yl]phenoxy]butyl]4-aza-1-azoniabicyclo[2.2.2]octane methanesulfonate salt, reference compound]
Plasma bile acid levels [2]: decreased

CCCCC1(CCCC)CS(=O)(=O)c2ccc(N(C)C)cc2[C@@H](c2ccc(OCc3ccc(C[N+]45CCN(CC4)CC5)cc3)cc2)[C@H]1O [LUM001]
Average serum drug exposure ([3]; Subject 0510, 5.0 mg QD (168.4 μg/kg)): 0,0 ng/ml | Systemic exposure / absorption by the children ([3]; patients under 18, QD in the morning): minimally absorbed | Time LUM001 remains active (previous experiments) [4]: more than 4.5 hours | Onset time to significant SBA lowering versus ED50 dose [5]: did not shorten | Serum Bile Acid, Mean [6]: 1.7 µg/mL | Fecal bile acids [7]: significant increase | Serum bile acids [7]: significant reduction
